Columns and labels:
[1] = RNA encapsulation efficiency of LNPs by Ribogreen assay; type: physicochemical; details: LNP with 47.5% Ionizable Lipid: 40% cholesterol: 2.5% PEG-2000 DMG: 10% DPSC, N/P 4-8
Experimental: (§1) LNPs were prepared with 47.5% Ionizable Lipid (e.g., a compound provided herein): 40% cholesterol: 2.5% PEG-2000 DMG: 10% DPSC and an N/P ratio range of 4-8. LNPs were formed by microfluidic mixing of the lipid and NA solutions using a Precision Nanosystems NanoAssemblr Spark or Benchtop series Instruments, according to the manufacturer's protocol. A ratio of aqueous to organic solvent of approximately 2:1 or 3:1 was maintained during mixing using differential flow rates. After mixing, LNPs were collected, diluted in phosphate buffer saline (PBS) or Tris-buffered saline (TBS) (approximately 1:1 v/v). Further buffer exchange was conducted using dialysis in PBS or TBS at 4° C. for 4 to 24 hours against a 20 kDa filter. After this initial dialysis, each individual LNP preparation was characterized via dynamic light scattering (DLS) to measure the size (e.g., diameter) and polydispersity. LNPs falling within specific diameter and polydispersity ranges were pooled, and further dialyzed against PBS or TBS at 4° C. for 1 to 4 hours against a 100 kDa dialysis cassette. After the second dialysis, LNPs were sterile filtered using 0.22 μm filter and stored at 4° C. for further use.
RNA concentration and encapsulation efficiency were determined by Ribogreen assay (BioTek Synergy LX plate reader).

[2] = LNP hydrodynamic diameter and polydispersity index by dynamic light scattering (DLS); type: physicochemical; details: LNP with 47.5% Ionizable Lipid: 40% cholesterol: 2.5% PEG-2000 DMG: 10% DPSC, N/P 4-8
Experimental: as §1
LNP hydrodynamic diameter and polydispersity index (PDI) were measured using high throughput dynamic light scattering (DLS) (Stunner, Unchained Labs). LNPs were diluted 1×TBS or PBS to an appropriate concentration and analyzed.

ALAS1 target site = assay: In vivo base editing in liver with LNPs carrying adenine base editor mRNA and sgRNA, targeted deep sequencing; details: Balb/C mice, tail vein, 0.15 mg/kg total RNA, ABE mRNA + ALAS1 sgRNA 1:1, tissues four to six days post-dose
Experimental: Exemplary LNP preparations were selected to determine each preparation's ability to perform base editing in a Balb/C mouse model as described herein.
Lipid nanoparticle components were dissolved in 100% ethanol at specified lipid component molar ratios. mRNA encoding an adenine base editor and a chemically-modified sgRNA was dissolved at a mass ratio of 1:1 in 50 mM citrate, pH 4.0, resulting in a concentration of NA cargo of approximately 0.1 mg/mL.
LNP preparations were formulated with molar ratios of 47.5% Ionizable Lipid: 40% Cholesterol: 2.5% PEG2000-DMG: 10% DSPC total lipid to NA mass ratio of 6 to 12.
LNP preparations were formed by microfluidic mixing of the lipid and NA solutions using a Precision Nanosystems NanoAssemblr Ignite series Instruments, according to the manufacturer's protocol.
A 3:1 ratio of aqueous to organic solvent was maintained during mixing using differential flow rates. After mixing, LNP preparations were collected, diluted in TBS (approximately 7:1 v/v), and further buffer exchange was conducted using dialysis in TBS at 4° C. for 8 to 24 hours against a 20 kDa filter. After this initial dialysis, each individual LNP preparation was characterized via dynamic light scattering (DLS) to measure size and polydispersity. pKa of a subpopulation of LNP preparations was measured via TNS assay.
After dialysis, LNP preparations were sterile filtered using 0.22 micron sterile filter and stored at 4° C. for further use. In some embodiments, LNP preparations were concentrated using 100 kDa Amicon filters per manufacturer's protocol.
Male Balb/C mice aged approximately 8-12 weeks were used in the experiments described herein. […]
Age-matched mice were also used to administer vehicle (1×TBS) via tail vein injection as a control. […] Base editing was determined by performing targeted deep sequencing analysis at the ALAS1 target site using extracted genomic DNA. […] Library size and concentration was confirmed by Fragment Analyzer (Agilent) and analyzed for whole genome sequencing using an Illumina HiSeq.

Lung = assay: Barcoded LNP biodistribution screen, fold above input (FAI) in lung; type: in vivo; details: pooled LNP IV tail vein, mice, 4 hours post-dose
Experimental: (§2) Male and female mice aged approximately 8-12 weeks were used for studies described by the present Example. Each mouse was temporarily restrained and pooled LNP was administered IV via tail vein injection in up to five animals per experiment. Age-matched mice was also used to administer vehicle (1×TBS) via tail vein injection in up to three animals per experiment. Additional routes of administration can also be conducted including intracerebral ventricular (ICV), intracisterna manga (ICM), intrathecal (IT), intramuscular (IM), nebulization, intranasal (IN), subcutaneous (SC), intraarticular, and intradermal (ID). At 4 hours post-dose, tissues including liver, spleen, bone marrow, testes, gastrocnemius, quadricep, lung, heart, kidney, and pancreas may be collected for analysis. […]
(§3) To screen for preferential LNP delivery to a target tissues, the relative abundance of each barcode in one or more target tissues was measured and compared to the relative abundance of each barcode to its corresponding relative input abundance to determine fold above input (FAI) for each barcode. […]
(§4) The FAI is the normalized relative abundance of a barcode in a selected sample as compared to its frequency in the input. […] The FAI value of the barcode was calculated by normalizing the relative abundance in the barcode sequence counts in the isolated samples to its relative abundance in the administration input. […]

Spleen = assay: Barcoded LNP biodistribution screen, fold above input (FAI) in spleen; type: in vivo; details: pooled LNP IV tail vein, mice, 4 hours post-dose
Experimental: as §2, with “(ID).” for “(ID). At 4 hours post-dose, tissues including liver, spleen, bone marrow, testes, gastrocnemius, quadricep, lung, heart, kidney, and pancreas may be collected for analysis.”
Liver, kidney, lung, and muscle (e.g. skeletal and cardiac) tissues may be mechanically, and then enzymatically digested using a mixture of proteinases, then passed through a 70 μm filter to generate single cell suspensions. […] Tissues were treated with ACK buffer to lyse red blood cells, and then stained with fluorescently-labeled antibodies for flow cytometry and fluorescence-activated cell sorting (FACS). […]
as §3

Liver = assay: Barcoded LNP biodistribution screen, fold above input (FAI) in liver; type: in vivo; details: pooled LNP IV tail vein, mice, 4 hours post-dose
Experimental: as §2, §3, §4

CCCCCC(CCCCC)CCOC(=O)CCCCCCCOC(=O)c1cc(C(=O)OCCCCCCCC(=O)OCCC(CCCCC)CCCCC)cc(C(=O)OCCCCN(C)C)c1 [Compound 7-9, 1-(4-(dimethylamino)butyl) 3,5-bis(8-oxo-8-((3-pentyloctyl)oxy)octyl) benzene-1,3,5-tricarboxylate]
Mean Encapsulation Efficiency (%) [1]: 84.9%
Mean Diameter (nm) [2]: 90.8 nm
Mean PDI [2]: 0.11

CCCCCCC(CC)OC(=O)CCCCCCCCN(CCCCCCCCC(=O)OC(CC)CCCCCC)CCCNC(=O)c1cccc(C(=O)NCCCN(CCCCCCCCC(=O)OC(CC)CCCCCC)CCCCCCCCC(=O)OC(CC)CCCCCC)c1 (stereo not drawn) [Compound 7-1, tetra(nonan-3-yl) 9,9′,9″,9′″-(((isophthaloylbis(azanediyl))bis(propane-3,1-diyl))bis(azanetriyl))tetranonanoate]
Mean Encapsulation Efficiency (%) [1]: 76.7%
Mean Diameter (nm) [2]: 82.4 nm
Mean PDI [2]: 0.16
base editing observed in liver (ALAS1 target site): 28.2%

CCCCCC(CCCCC)CCOC(=O)CCCCCCCOC(=O)c1cc(C(=O)OCCCCCCCC(=O)OCCC(CCCCC)CCCCC)cc(C(=O)OCCCN(C)C)c1 [Compound 7-7, 1-(3-(dimethylamino)propyl) 3,5-bis(8-oxo-8-((3-pentyloctyl)oxy)octyl) benzene-1,3,5-tricarboxylate]
Mean Encapsulation Efficiency (%) [1]: 75.3%
Mean Diameter (nm) [2]: 86.5 nm
Mean PDI [2]: 0.09

CCCCCCC(CC)OC(=O)CCCCCCCCN(CCCCCCCCC(=O)OC(CC)CCCCCC)CCCNC(=O)c1cc(C(=O)NCCCN(CCCCCCCCC(=O)OC(CC)CCCCCC)CCCCCCCCC(=O)OC(CC)CCCCCC)cc(C(=O)OCCN(C)C)c1 (stereo not drawn) [Compound 7-5, tetra(nonan-3-yl) 9,9′,9″,9′-((((5-((2-(dimethylamino)ethoxy)carbonyl)isophthaloyl)bis(azanediyl))bis(propane-3,1-diyl))bis(azanetriyl))tetranonanoate]
Mean Encapsulation Efficiency (%) [1]: 94.7%
Mean Diameter (nm) [2]: 124.6 nm
Mean PDI [2]: 0.10
base editing observed in liver (ALAS1 target site): 5.2%

CCCCC/C=C\C/C=C\CCCCCCCCC(CCCCCCCC/C=C\C/C=C\CCCCC)OC(=O)CCCN(C)C [MC3, (6Z,9Z,28Z,31Z)-heptatriaconta-6,9,28,31-tetraen-19-yl 4-(dimethylamino) butanoate]
FAI (Lung) (Lung; Table 3 screening experiment): 0.65
FAI (Lung) (Lung; Table 4 screening experiment): 1.26
FAI (Spleen) (Spleen; Table 3 screening experiment): 0.45
FAI (Spleen) (Spleen; Table 4 screening experiment): 1.71
FAI (Liver) (Liver; Table 3 screening experiment): 0.31
FAI (Liver) (Liver; Table 4 screening experiment): 1.30

CCCCCCC(CC)OC(=O)CCCCCCCCN(CCCCCCCCC(=O)OC(CC)CCCCCC)CCCNC(=O)c1ccc(C(=O)NCCCN(CCCCCCCCC(=O)OC(CC)CCCCCC)CCCCCCCCC(=O)OC(CC)CCCCCC)cc1 (stereo not drawn) [Compound 7-2, tetra(nonan-3-yl) 9,9′,9″,9′″-(((terephthaloylbis(azanediyl))bis(propane-3,1-diyl))bis(azanetriyl))tetranonanoate]
Mean Encapsulation Efficiency (%) [1]: 58.4%
Mean Diameter (nm) [2]: 110.0 nm
Mean PDI [2]: 0.08
base editing observed in liver (ALAS1 target site): 3.1%
